Series [1] concerns human embryonic stem cell derived neural stem cells (NSCs). The experiment in a line: Neural stem cell proliferation assay (neurogenesis assay, ATP/CellTiterGlo). The format is cell-based. The conditions noted are these: 96 h, compound concentration at which 150% activity of control (100%) is reached, NSC proliferation by ATP level after 4 days incubation, dose response 8 μM to 8 nM. How it is done:
Neural Stem Cell Proliferation Assay
Neurogenic properties of small molecules are determined based on the proliferation of human embryonic stem cell derived neural stem cells (NSCs) which were derived via a dual smad inhibition as previously described (Chambers, S. M., et al., Highly efficient neural conversion of human ES and iPS cells by dual inhibition of SMAD signaling, Nature biotechnology, 2009. 27(3): p. 275-80.)
Compounds respond is measured by the increase in cells based on ATP levels (Promega:CellTiterGlo®) after an incubation period of 4 days.
NSCs are thawed and expanded over 3 passages. On the 14th day, NSCs are seeded in Polyornithin/Laminin coated 384 well plates at a cell density of 21,000 cells/cm^2 in a media volume of 38 μL.
4 hours after cell seeding, compound solutions are added at a volume of 2 μl. Stock solutions of the compounds (water, 5% DMSO) are diluted to obtain a dose response (11 points, dilution factor is 2), ranging from 8 μM to 8 nM. Controls are run to consistently determine the neurogenic properties of the cells:
Negative (neutral) control is cell culture Media (final DMSO concentration: 0.25%).
Positive controls are: • 1. cell culture Media+100 ng/ml FGF2 (final DMSO concentration: 0.1%) • 2. cell culture Media+20 ng/ml EGF (final DMSO concentration: 0.1%) • 3. cell culture Media+100 ng/ml Wnt3a (final DMSO concentration: 0.1%)
After 4 days incubation at 37° C., 5% CO2, the amount of ATP per well is quantified. The ATP concentration is proportional to the cell number. ATP is quantified by using the Promega CellTiterGlo® kit. The CellTiterGlo® reagents contain a cell lysis buffer, a thermo stable luciferase (UltraGlo™ recombinant luciferase), magnesium and luciferin. Luciferin reacts with ATP producing oxyluciferin, AMP and light. The luminescence signal is proportional to the ATP content.
The value of negative (neutral) control is determined for each assay plate by taking the average of 16 negative control wells. The neurogenic compound response is calculated for each compound as (compound/Negative Control)*100.
The values of EC150 from the dose response curve are determined for each test compound. The EC150 is the compound concentration at which 150% activity of control (100%) is reached.

Molecules are shown by their SMILES.

Compound `Fc1ccc(-n2cnc3ccc(-c4ccnn4-c4ccccc4)cc32)cc1` [Example 7, 1-(4-Fluoro-phenyl)-6-(2-phenyl-2H-pyrazol-3-yl)-1H-benzoimidazole] had a melting point of 194 °C. Also, the EC150 in series [1] is 0.031 µM.

`Cc1ccc(-n2cnc3ccc(-c4ccnn4-c4ccc(F)cc4)cc32)cc1` [Example 6, 6-[2-(4-Fluoro-phenyl)-2H-pyrazol-3-yl]-1-p-tolyl-1H-benzoimidazole] had a melting point of 149 °C. Further, the EC150 in series [1] came to 0.0195 µM.

Regarding `Cc1ccc(-n2nccc2-c2ccc3ncn(-c4ccc(F)cc4)c3c2)cc1` [Example 9, 1-(4-Fluoro-phenyl)-6-(2-p-tolyl-2H-pyrazol-3-yl)-1H-benzoimidazole], the EC150 in series [1] was found to be 0.009 µM.

Compound `Cc1ccc(-n2nccc2-c2ccc3ncn(-c4ccc(C)cc4)c3c2)cc1` [Example 1, 1-p-Tolyl-6-(2-p-tolyl-2H-pyrazol-3-yl)-1H-benzoimidazole] registered a melting point of 165 °C. Moreover, the EC150 in series [1] was determined as 0.008 µM.

With `Fc1ccc(-n2cnc3ccc(-c4cncn4-c4ccc(Cl)cc4)cc32)cc1` [Example 29, 6-[3-(4-Chloro-phenyl)-3H-imidazol-4-yl]-1-(4-fluoro-phenyl)-1H-benzoimidazole], the melting point came to 254 °C. In series [1], this compound returned an EC150 of 0.074 µM.

`Fc1ccc(-n2cnc3ccc(-c4cncn4-c4ccccc4)cc32)cc1` [Example 28, 1-(4-Fluoro-phenyl)-6-(3-phenyl-3H-imidazol-4-yl)-1H-benzoimidazole]: the melting point is 216 °C. This compound also returned an EC150 in series [1] of 0.07 µM.

Turning to `COc1ccc(-n2cnc3ccc(-c4ccnn4-c4ccc(F)cc4)cc32)cc1` [Example 24, 6-[2-(4-Fluoro-phenyl)-2H-pyrazol-3-yl]-1-(4-methoxy-phenyl)-1H-benzoimidazole], the melting point is 143 °C. The same compound had an EC150 in series [1] of 0.021 µM.

As for `Fc1ccc(-n2nccc2-c2ccc3ncn(-c4ccccc4)c3c2)cc1` [Example 3, 6-[2-(4-Fluoro-phenyl)-2H-pyrazol-3-yl]-1-phenyl-1H-benzoimidazole], the melting point was 201 °C. In addition, the EC150 in series [1] was found to be 0.024 µM.

On to `Fc1cc(Cl)ccc1-n1cnc2ccc(-c3ccnn3-c3ccc(Cl)cc3)cc21` [Example 23, 1-(4-Chloro-2-fluoro-phenyl)-6-[2-(4-chloro-phenyl)-2H-pyrazol-3-yl]-1H-benzoimidazole], for which the melting point stood at 158 °C. This compound also had an EC150 in series [1] of 0.17 µM.

As for `Fc1ccc(-n2nccc2-c2ccc3ncn(-c4ccncc4)c3c2)cc1` [Example 20, 6-[2-(4-Fluoro-phenyl)-2H-pyrazol-3-yl]-1-pyridin-4-yl-1H-benzoimidazole], the melting point was found to be 199 °C. The compound further gave an EC150 in series [1] of 0.044 µM.

Take `FC(F)(F)c1ccc(-n2nccc2-c2ccc3ncn(-c4ccc(Cl)cc4)c3c2)cc1` [Example 12, 1-(4-Chloro-phenyl)-6-[2-(4-trifluoromethyl-phenyl)-2H-pyrazol-3-yl]-1H-benzoimidazole]: the melting point was determined as 198 °C. In series [1], the EC150 came out at 0.71 µM.

`CS(=O)(=O)c1ccc(-n2cnc3ccc(-c4ccnn4-c4ccc(F)cc4)cc32)cc1` [Example 26, 6-[2-(4-Fluoro-phenyl)-2H-pyrazol-3-yl]-1-(4-methanesulfonyl-phenyl)-1H-benzoimidazole] yielded a melting point of 247 °C. In series [1], the EC150 turned out to be 0.28 µM.

Regarding `Cc1ccc(-n2cnc3ccc(-c4ccnn4-c4ccccc4)cc32)cc1` [Example 5, 6-(2-Phenyl-2H-pyrazol-3-yl)-1-p-tolyl-1H-benzoimidazole], the melting point came to 146 °C. Also, in series [1], the EC150 was 0.0165 µM.

For the compound `Cc1ccc(-n2nccc2-c2ccc3ncn(-c4ccccc4)c3c2)cc1` [Example 4, 1-Phenyl-6-(2-p-tolyl-2H-pyrazol-3-yl)-1H-benzoimidazole], the EC150 in series [1] amounted to 0.015 µM.
